From PubChem BioAssay AID624129 (Sanford-Burnham Center for Chemical Genomics, 2012)
The source made the active and inactive calls. The rule behind the calls is not given here.

What was measured:
Assay in all cases: potency against CXCR6 with APJ panel – cell-based, beta-arrestin, DiscoveRx, uHTS hits, dose response (AID 624129)
[1] = biological target: Apelin receptor (Homo sapiens) (UniProt P35414); details: CXCR6 beta-arrestin (DiscoveRx) antagonist cell assay, APJ
[2] = biological target: Beta-galactosidase (Escherichia coli) (UniProt Q8VNN2); details: CXCR6 beta-arrestin (DiscoveRx) antagonist cell assay, b-galactosidase
Beta-galactosidase (Escherichia coli), sequence (Q8VNN2 whole entry, looked up): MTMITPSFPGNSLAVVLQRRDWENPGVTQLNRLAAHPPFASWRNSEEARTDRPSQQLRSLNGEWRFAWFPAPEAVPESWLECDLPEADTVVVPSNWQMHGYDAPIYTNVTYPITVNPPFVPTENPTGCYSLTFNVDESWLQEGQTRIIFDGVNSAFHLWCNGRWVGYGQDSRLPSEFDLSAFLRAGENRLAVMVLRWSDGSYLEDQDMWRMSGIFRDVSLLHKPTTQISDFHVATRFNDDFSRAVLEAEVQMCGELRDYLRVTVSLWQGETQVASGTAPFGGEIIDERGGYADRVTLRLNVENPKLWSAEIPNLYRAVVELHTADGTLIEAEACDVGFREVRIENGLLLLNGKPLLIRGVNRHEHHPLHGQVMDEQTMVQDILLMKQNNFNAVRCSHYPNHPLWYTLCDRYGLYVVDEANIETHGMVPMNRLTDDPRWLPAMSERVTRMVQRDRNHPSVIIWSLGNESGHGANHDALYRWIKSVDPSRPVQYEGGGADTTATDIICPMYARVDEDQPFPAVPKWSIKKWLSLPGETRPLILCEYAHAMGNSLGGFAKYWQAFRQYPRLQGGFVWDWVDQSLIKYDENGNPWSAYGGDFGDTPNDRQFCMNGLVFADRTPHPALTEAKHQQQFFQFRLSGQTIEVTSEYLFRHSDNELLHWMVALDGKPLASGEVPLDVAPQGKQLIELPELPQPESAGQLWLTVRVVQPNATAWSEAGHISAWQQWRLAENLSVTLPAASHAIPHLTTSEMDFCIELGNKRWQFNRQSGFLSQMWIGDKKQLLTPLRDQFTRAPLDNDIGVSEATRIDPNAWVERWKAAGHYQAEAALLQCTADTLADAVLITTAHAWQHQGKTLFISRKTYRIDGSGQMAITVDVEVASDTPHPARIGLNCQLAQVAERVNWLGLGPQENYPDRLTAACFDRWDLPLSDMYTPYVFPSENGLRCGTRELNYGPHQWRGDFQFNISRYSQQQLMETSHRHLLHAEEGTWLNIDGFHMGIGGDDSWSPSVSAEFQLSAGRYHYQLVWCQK

[3] = biological target: C-C chemokine receptor type 6 (Homo sapiens) (UniProt P51684); details: CXCR6 beta-arrestin (DiscoveRx) antagonist cell assay
[4] = biological target: C-X-C chemokine receptor type 6 (Homo sapiens) (UniProt O00574); details: CXCR6 beta-arrestin (DiscoveRx) antagonist cell assay
C-X-C chemokine receptor type 6 (Homo sapiens), sequence (O00574 whole entry, looked up): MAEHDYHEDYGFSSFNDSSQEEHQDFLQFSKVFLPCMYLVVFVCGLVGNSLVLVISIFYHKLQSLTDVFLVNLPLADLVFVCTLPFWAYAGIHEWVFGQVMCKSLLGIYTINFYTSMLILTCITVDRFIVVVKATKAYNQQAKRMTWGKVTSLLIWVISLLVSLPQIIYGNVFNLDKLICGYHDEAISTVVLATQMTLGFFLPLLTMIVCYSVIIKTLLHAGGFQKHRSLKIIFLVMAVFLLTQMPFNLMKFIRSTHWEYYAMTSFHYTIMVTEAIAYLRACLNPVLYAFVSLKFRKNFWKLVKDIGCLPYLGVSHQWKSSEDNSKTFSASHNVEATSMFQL

[5] = dose range 1, mean IC50 across replicates
[6] = CCR6, dose range 1, mean IC50 across replicates
[7] = CXCR6, dose range 1, mean IC50 across replicates
[8] = CXCR6, run 1, dose range 2, at 80 µM (top of the series)

Row | Structure (SMILES) | IC50 ([1]; dose range 1) [µM] | IC50 [1, 5] [µM] | IC50 ([1]; run 2, dose range 1) [µM] | IC50 ([1]; run 3, dose range 1) [µM] | IC50 ([2]; dose range 1) | IC50 [2, 5] [µM] | IC50 ([3]; CCR6, dose range 1) [µM] | IC50 [3, 6] [µM] | IC50 ([3]; CCR6, run 2, dose range 1) [µM] | IC50 ([4]; CXCR6, dose range 1) | IC50 [4, 7] [µM] | IC50 ([4]; CXCR6, run 1, dose range 2) [µM] | IC50 ([4]; CXCR6, run 2, dose range 1) [µM] | IC50 ([4]; CXCR6, run 2, dose range 2) [µM] | inhibition [4, 8] [%] | inhibition ([4]; CXCR6, run 1, dose range 2, at 10 µM (top of the series)) [%] | inhibition ([4]; CXCR6, run 1, dose range 2, at 40 µM (top of the series)) [%]
1 | Cc1nnc(Sc2cc(NCCCO)c([N+](=O)[O-])c3nonc23)s1 | 12.9 | 11.6 | 11.3 | 10.6 | > 80 µM (inactive) | > 80 | 8.94 | 8.16 | 7.38 | 7.25 µM | 7.84 | 8.37 | 9.54 | 6.2 | – | – | –
2 | Cc1[nH][nH]c(=O)c1C(c1c(C)[nH][nH]c1=O)c1cn(Cc2ccc(F)cc2)c2ccccc12 | 34.9 | 33.3 | 32.9 | 32 | > 80 µM (inactive) | > 80 | 23 | 21.6 | 20.2 | inactive | 28.2 | – | 27.7 | – | 97.7 | – | –
3 | COc1ccc(NC(=O)/C(Cl)=C(/Cl)S(=O)(=O)Cc2ccc(C)cc2)cn1 | 0.686 | 0.684 | 0.685 | 0.68 | > 80 µM (inactive) | > 80 | 0.489 | 0.686 | 0.883 | 0.963 µM | 0.897 | – | 0.832 | – | – | 99.9 | –
4 | CCOc1ccc(N(CC(=O)N/N=C/c2ccccn2)S(=O)(=O)c2ccc(Cl)cc2)cc1 | 14.4 | 14.2 | > 80 | 13.9 | > 80 µM (inactive) | > 80 | 11.4 | 12.7 | 13.9 | inactive | 27.1 | 10.4 | 61.1 | 11.9 | – | – | –
5 | NC(=S)N/N=C/c1ncc(C(F)(F)F)cc1Cl | 6.82 | 7.73 | 8.7 | 7.68 | > 80 µM (inactive) | > 80 | 6 | 6.7 | 7.41 | 7.01 µM | 5.44 | 3.67 | 6.86 | 4.23 | – | – | –
6 | CCCOc1cccc(-c2cc(C(=O)N/N=C/c3ccccn3)c3ccccc3n2)c1 | 5.48 | 7.37 | 9.25 | > 80 | > 80 µM (inactive) | > 80 | 2.7 | 3.67 | 4.63 | 9.05 µM | 8.66 | 4.31 | 14.5 | 6.79 | – | – | –
7 | CC(Oc1ccc(Br)cc1)C(=O)Nc1nc(-c2ccccn2)cs1 (stereo not given) | 6.97 | 5.95 | 5.67 | 5.22 | > 80 µM (inactive) | > 80 | 5.51 | 6.66 | 7.8 | 6.74 µM | 5.51 | 4.23 | 6.13 | 4.93 | – | – | –
8 | O=S(=O)(Nc1cccc2cccnc12)c1ccccc1 | 6.46 | 9.91 | 10.7 | 12.5 | > 80 µM (inactive) | > 80 | 7.66 | 9.73 | 11.8 | inactive | 14.5 | – | 14.5 | – | 116 | – | –
9 | CC1(C)CC(=O)C2=C(C1)OC1=C(C(=O)CC(C)(C)C1)C2c1ccc(O)cc1O | 11.2 | 10.6 | 8.84 | 11.7 | > 80 µM (inactive) | > 80 | 4.66 | 5.44 | 6.22 | 10.3 µM | 9.86 | 9.08 | 9.24 | 10.8 | – | – | –
10 | CCN1/C(=C\C=C2\C(=O)N(c3ccccc3)C(=S)N2C)Sc2ccccc21 | 8.97 | 11.3 | 13.9 | 11 | > 80 µM (inactive) | > 80 | 4.79 | 5.43 | 6.07 | 7.42 µM | 6.24 | – | 5.05 | – | 91.3 | – | –
11 | C/C(=N/NC(=O)c1ccc(C(C)(C)C)cc1)c1ccccn1 | 1.12 | 1.41 | 1.66 | 1.45 | > 80 µM (inactive) | > 80 | 1.26 | 1.53 | 1.8 | 1.32 µM | 1.18 | 0.9 | 1.79 | 0.719 | – | – | –

Next, values leading:

Row | IC50 ([1]; dose range 1) [µM] | IC50 [1, 5] [µM] | IC50 ([1]; run 2, dose range 1) [µM] | IC50 ([1]; run 3, dose range 1) [µM] | IC50 ([2]; dose range 1) | IC50 [2, 5] [µM] | IC50 ([3]; CCR6, dose range 1) [µM] | IC50 [3, 6] [µM] | IC50 ([3]; CCR6, run 2, dose range 1) [µM] | IC50 ([4]; CXCR6, dose range 1) | IC50 [4, 7] [µM] | IC50 ([4]; CXCR6, run 1, dose range 2) [µM] | IC50 ([4]; CXCR6, run 2, dose range 1) [µM] | IC50 ([4]; CXCR6, run 2, dose range 2) [µM] | inhibition [4, 8] [%] | inhibition ([4]; CXCR6, run 1, dose range 2, at 10 µM (top of the series)) [%] | inhibition ([4]; CXCR6, run 1, dose range 2, at 40 µM (top of the series)) [%] | Structure (SMILES)
12 | – | > 80 | > 80 | > 80 | > 80 µM (inactive) | > 80 | – | > 80 | > 80 | > 80 µM (inactive) | > 80 | – | > 80 | – | -36.2 | – | – | COc1ccc(NC(=O)/C(Cl)=C(/Cl)S(=O)Cc2ccc(Cl)cc2)cn1 (stereo not given)
13 | 9.5 | 11.5 | 11.7 | 13.2 | > 80 µM (inactive) | > 80 | 8.25 | 8.81 | 9.37 | inactive | 14.3 | – | 13.5 | – | 118 | – | – | O=[N+]([O-])c1c(NCCCO)cc(Sc2nc3ccccc3s2)c2nonc12
14 | 2.79 | 5.05 | 5.23 | 7.12 | > 80 µM (inactive) | > 80 | 3.37 | 3.57 | 3.77 | 4.4 µM | 3.59 | 3.41 | > 80 | 2.96 | – | – | – | Cc1ccc2c(Cl)cc(Cl)c(O)c2n1
15 | 4.2 | 7.6 | > 80 | 11 | > 80 µM (inactive) | > 80 | 3.97 | 4.52 | 5.08 | – | 3.61 | 3.3 | > 80 | 3.93 | – | – | – | COCc1cc(=O)[nH]c(Nc2nc3ccc(C)cc3o2)n1
16 | 4.95 | 6.97 | 8.96 | 6.98 | > 80 µM (inactive) | > 80 | 3.71 | 3.08 | 2.45 | 5 µM | 4.12 | 3.43 | 5.18 | 2.88 | – | – | – | COc1ccc(/C=C/c2ccc3cccc(O)c3n2)c(OC)c1OC
17 | 2.79 | 7.52 | 15.3 | 4.43 | > 80 µM (inactive) | > 80 | 2.42 | 3.22 | 4.01 | 4.85 µM | 4.74 | 2.69 | 6.67 | > 79 | – | – | – | C/C(=N\NC(=O)c1cc(-c2cccs2)nc2ccccc12)c1ccccn1
18 | – | > 80 | > 80 | > 80 | > 80 µM (inactive) | > 80 | – | > 80 | > 80 | > 80 µM (inactive) | > 80 | – | > 80 | – | -25.6 | – | – | Cc1cc(C)c2ccc(N)nc2c1O
19 | 23.5 | 18 | 16.9 | 13.5 | 30.8 µM | 30.8 | 16.9 | 14.9 | 12.9 | inactive | 21 | – | 15 | – | 103 | – | – | O=C1c2sc3nc4ccccc4n3c2C(=O)N1c1ccccc1Cl
20 | 16.4 | 22.8 | 14.4 | 37.5 | > 80 µM (inactive) | > 80 | 3.26 | 3.71 | 4.17 | 8.91 µM | 9.37 | 11.2 | 7.95 | 9.39 | – | – | – | Cc1c(Cl)sn(-c2ccc(Cl)cc2)c1=O
21 | 1.69 | 3.11 | 5.55 | 2.1 | > 80 µM (inactive) | > 80 | 1.85 | 2.69 | 3.52 | 2.68 µM | 2.42 | – | 2.16 | – | – | – | 96.5 | Cc1cc(C)c2c(=O)n(CC(=O)Nc3cccc(Cl)c3C)sc2n1
